From BindingDB's records for patent WO2022079616 (NOVARTIS AG, 2022)
pIC50: −log10 of the molar value.

Assays:
[1] = biological target: T1, Phosphatidylinositol 4-kinase (Cryptosporidium parvum (strain Iowa II), UniProt Q5CVD3); assay: PI(4)K enzymatic Assay
T1 sequence (Q5CVD3 whole entry): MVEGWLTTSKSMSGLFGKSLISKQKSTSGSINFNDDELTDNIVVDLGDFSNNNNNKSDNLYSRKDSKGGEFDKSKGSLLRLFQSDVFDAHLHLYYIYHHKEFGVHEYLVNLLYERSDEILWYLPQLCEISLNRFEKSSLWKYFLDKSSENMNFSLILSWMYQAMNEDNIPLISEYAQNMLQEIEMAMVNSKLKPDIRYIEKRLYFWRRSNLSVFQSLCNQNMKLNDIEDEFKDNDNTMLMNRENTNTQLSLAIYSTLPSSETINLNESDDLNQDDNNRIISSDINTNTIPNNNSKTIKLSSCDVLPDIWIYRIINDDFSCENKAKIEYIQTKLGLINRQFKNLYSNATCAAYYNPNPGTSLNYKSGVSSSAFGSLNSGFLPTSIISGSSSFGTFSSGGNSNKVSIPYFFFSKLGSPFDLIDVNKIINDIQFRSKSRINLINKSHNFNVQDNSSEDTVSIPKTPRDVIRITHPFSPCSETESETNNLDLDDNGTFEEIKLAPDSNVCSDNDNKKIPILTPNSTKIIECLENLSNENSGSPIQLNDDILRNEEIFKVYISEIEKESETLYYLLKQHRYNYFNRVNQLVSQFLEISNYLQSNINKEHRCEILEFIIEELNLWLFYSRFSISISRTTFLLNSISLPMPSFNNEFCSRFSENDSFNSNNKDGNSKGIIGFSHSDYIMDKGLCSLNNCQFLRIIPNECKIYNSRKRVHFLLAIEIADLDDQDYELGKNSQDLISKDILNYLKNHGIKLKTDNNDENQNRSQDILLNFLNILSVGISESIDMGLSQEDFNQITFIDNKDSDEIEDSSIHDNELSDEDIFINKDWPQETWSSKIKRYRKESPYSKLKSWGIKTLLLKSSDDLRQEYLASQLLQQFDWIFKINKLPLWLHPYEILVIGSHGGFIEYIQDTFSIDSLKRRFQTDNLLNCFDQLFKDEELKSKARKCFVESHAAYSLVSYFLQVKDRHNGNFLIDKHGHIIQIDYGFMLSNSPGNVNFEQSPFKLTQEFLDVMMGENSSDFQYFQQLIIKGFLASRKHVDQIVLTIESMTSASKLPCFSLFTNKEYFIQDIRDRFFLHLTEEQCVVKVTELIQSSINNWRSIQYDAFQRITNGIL
Excerpt: Baculovirus expression and purification of C. parvum phosphatidylinositol 4-kinase: The full-length coding sequence of C. parvum PI(4)K (cgd8_4500, 1114 amino acids) was codon-optimized for baculovirus expression, synthesized and cloned into pFastBac-HTb (Invitrogen 10584-027) in frame with the amino-terminal polyhistidine tag using the BamHI and HindIII restriction sites. Recombinant pFastBacHTb-CpPI(4)K bacmid clones were generated by site-specific transposition in E. coli DH10Bac (Invitrogen 10361-012). The bacmid sequence was confirmed by direct DNA sequencing to confirm a lack of mutations across the whole gene. The subsequent steps for bacmid isolation, transfection and selection of the recombinant viruses were performed according to the manufacturer s protocol (Bac-to-Bac system # 10359, Invitrogen).SF9 cells, cultured in SF-900 III serum-free medium, were transfected with recombinant baculovirus at 1/200 (v/v) and incubated at 27 °C for 72^h. The pellets were collected after centrifugation and re-suspended in cell lysis buffer (20^mM Tris-HCl, pH^7.5, 300^mM NaCl, 1mM DTT, 20mM imidazole, 0.01% Triton X-100 and 1×^complete protease inhibitor cocktail without EDTA (Roche Diagnostics 04693116001)). The cell suspension was lysed by sonication and the clarified supernatant was loaded onto a 1^ml HisTrap affinity column (GE Healthcare) pre-equilibrated with buffer A (20^mM Tris-HCl, pH^7.5, 300^mM NaCl, 1mM DTT, 20mM Imidazole, and 1×^complete protease inhibitor cocktail without EDTA). The column was washed with buffer B (buffer A containing 45 mM imidazole) and the bound protein of interest was eluted with buffer C (buffer A with 90^mM imidazole). The fractions containing CpPI(4)K were pooled, concentrated using Amicon Ultra-15 and purified by a gel-filtration column (Hi-Load 26/60 Superdex 200, GE Healthcare) equilibrated with 20^mM Tris, pH^7.5, 300^mM NaCl, 1^mM DTT and 1×^protease inhibitor cocktail without EDTA. The concentrations of the purified protein (Mw 132.39 kda) was determined by using the protein molar extinction coefficient (ε280^nm = 133,810^M−1^cm−1). Aliquots were flash frozen in liquid nitrogen and immediately stored at −80 °C.PI(4)K enzymatic Assay: The CpPI(4)K enzymatic assay was performed as described earlier with a some modifications (McNamara et al., 2013). Briefly, L-α-phosphatidylinositol (Avanti Polar Lipid 840046), dissolved in 3% n-octylglucoside (Roche Diagnostics 10634425001), was used as the lipid substrate for the PI(4)K activity assay. CpPI(4)K was assayed using Transcreener ADP2 FP detection kit (BellBrook 3010) in a black, solid 384-well plate (Corning 3575). The final assay volume was 10^μl and contained 3^nM of the respective CpPI(4)K construct in 10^mM Tris, pH^7.5, 1^mM DTT, 3^μM ATP, 5^mM Mn2+, 0.05% Triton X-100 and 10^μM phosphatidylinositol/octylglucoside. The enzyme reaction was performed for 50 minutes at room temperature and was stopped by adding 10^μl of detection mix containing 1×^stop buffer (50mM HEPES, pH7.5, 400mM NaCl, 20mM EDTA, and 0.02% Brij-35), 2^nM AMP Alexa Fluor 633 tracer, and 20^μg^ml−1 ADP antibody. Fluorescence polarization measurements were performed on the Infinite M1000 plate reader (Tecan) with λex = 635^nm and λem = 680^nm (20-nm bandwidth). IC50 values were calculated using Graphpad Prism software.

[2] = biological target: PI3K/PI4K catalytic domain-containing protein (Cryptosporidium hominis, UniProt A0A0S4TH36)
Sequence of PI3K/PI4K catalytic domain-containing protein (A0A0S4TH36 whole entry, the tested form may be a part): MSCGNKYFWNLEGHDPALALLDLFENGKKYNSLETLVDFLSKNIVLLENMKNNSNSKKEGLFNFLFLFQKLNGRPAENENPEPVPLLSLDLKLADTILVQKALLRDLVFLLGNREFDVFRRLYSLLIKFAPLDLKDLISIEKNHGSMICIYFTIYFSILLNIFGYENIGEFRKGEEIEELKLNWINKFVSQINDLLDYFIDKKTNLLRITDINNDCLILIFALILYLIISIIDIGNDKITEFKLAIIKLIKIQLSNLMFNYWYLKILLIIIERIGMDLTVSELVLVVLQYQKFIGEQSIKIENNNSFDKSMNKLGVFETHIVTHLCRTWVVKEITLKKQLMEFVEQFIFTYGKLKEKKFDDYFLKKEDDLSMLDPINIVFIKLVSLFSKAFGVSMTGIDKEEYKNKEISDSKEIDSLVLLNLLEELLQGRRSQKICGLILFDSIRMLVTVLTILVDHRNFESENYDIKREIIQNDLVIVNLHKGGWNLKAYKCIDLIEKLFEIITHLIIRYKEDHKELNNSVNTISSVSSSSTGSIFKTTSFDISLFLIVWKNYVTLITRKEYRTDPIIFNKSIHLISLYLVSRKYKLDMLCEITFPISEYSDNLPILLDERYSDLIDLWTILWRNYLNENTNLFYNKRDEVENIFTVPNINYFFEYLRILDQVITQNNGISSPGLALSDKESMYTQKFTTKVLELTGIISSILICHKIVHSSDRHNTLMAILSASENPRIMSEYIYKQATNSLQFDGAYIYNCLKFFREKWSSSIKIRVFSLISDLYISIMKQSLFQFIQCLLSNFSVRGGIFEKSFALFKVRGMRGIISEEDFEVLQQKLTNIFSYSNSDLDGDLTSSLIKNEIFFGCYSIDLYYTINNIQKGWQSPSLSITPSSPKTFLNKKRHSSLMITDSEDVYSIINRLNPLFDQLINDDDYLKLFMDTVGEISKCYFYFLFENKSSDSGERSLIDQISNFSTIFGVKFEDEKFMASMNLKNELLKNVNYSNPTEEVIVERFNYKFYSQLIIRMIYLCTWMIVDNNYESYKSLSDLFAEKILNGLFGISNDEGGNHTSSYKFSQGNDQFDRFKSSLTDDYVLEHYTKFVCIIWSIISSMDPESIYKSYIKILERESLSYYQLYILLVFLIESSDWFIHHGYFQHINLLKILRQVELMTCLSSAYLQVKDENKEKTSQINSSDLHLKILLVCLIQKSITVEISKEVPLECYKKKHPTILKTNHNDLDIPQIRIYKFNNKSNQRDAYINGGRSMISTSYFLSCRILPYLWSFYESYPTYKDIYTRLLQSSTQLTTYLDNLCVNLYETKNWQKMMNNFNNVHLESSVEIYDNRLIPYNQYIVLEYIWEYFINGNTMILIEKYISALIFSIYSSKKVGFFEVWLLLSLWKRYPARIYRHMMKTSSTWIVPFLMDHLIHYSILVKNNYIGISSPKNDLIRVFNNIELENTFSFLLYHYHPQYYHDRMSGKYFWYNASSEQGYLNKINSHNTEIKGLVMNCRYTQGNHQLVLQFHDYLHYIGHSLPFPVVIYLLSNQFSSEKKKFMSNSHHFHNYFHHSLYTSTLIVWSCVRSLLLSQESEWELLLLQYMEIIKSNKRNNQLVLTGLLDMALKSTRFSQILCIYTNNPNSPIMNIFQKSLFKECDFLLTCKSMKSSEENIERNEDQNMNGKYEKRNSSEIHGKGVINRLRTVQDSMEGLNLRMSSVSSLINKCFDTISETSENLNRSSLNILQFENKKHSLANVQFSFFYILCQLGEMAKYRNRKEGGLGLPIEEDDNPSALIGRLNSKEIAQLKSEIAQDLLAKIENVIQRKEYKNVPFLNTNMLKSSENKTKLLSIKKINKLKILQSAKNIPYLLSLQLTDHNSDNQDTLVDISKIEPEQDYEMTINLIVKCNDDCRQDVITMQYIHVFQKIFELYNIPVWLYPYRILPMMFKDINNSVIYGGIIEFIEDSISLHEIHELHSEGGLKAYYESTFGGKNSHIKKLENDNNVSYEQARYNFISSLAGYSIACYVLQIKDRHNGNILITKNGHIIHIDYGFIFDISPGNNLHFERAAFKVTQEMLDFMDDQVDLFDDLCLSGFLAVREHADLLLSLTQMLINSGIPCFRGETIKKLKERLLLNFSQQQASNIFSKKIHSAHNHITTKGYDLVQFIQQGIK

Structure (SMILES)	pIC50 [1]	pIC50 [2]
CNC(=O)c1ccc(-c2cnn3ccc(C(=O)N(C)c4ccc(Cl)c(C(=O)O)c4)cc23)cc1 [WO2022079616, Example 1.18]	> 7.00	6.26
CNC(=O)c1ccc(-c2cnn3ccc(C(=O)N(C)c4ccc(OC(F)(F)F)c(C(=O)OC)c4)cc23)cc1 [WO2022079616, Example 1.26]	> 7.00	–
COC(=O)c1cc(N(C)C(=O)c2ccn3ncc(-c4ccc(C(N)=O)cc4)c3c2)ccc1C#N [WO2022079616, Example 1.27]	6.26	< 6.00
CNC(=O)c1ccc(-c2cnn3cnc(C(=O)N(C)c4ccc(Cl)c(C(=O)OC)c4)cc23)cc1 [WO2022079616, Example 3.1]	> 7.00	< 6.00
CN(C(=O)c1ccn2ncc(-c3ccc(C(N)=O)cc3)c2c1)c1ccc(Cl)c(C(=O)O)c1 [WO2022079616, Example 1.03]	> 7.00	–
CNC(=O)c1ccc(-c2cnn3ccc(C(=O)N(C)c4ccc(Cl)c(C(=O)OC)c4)cc23)cc1C [WO2022079616, Example 1.22]	6.26	< 6.00
CN(C(=O)c1ccn2ncc(-c3ccc(C(N)=O)cc3)c2c1)c1ccc(Cl)c(C(=O)OC(C)(C)C)c1 [WO2022079616, Example 1.02]	> 7.00	–
CC(C)COC(=O)c1cc(N(C)C(=O)c2ccn3ncc(-c4ccc(C(N)=O)cc4)c3c2)ccc1Cl [WO2022079616, Example 1.05]	> 7.00	–
CN(C(=O)c1ccn2ncc(-c3ccc(C(N)=O)cc3)c2c1)c1ccc(Cl)c(C(=O)OCC(F)(F)F)c1 [WO2022079616, Example 1.10]	> 7.00	–
COC(=O)c1cc(Cl)ccc1N(C)C(=O)c1ccn2ncc(-c3ccc(C(N)=O)cc3)c2c1 [WO2022079616, Example 4.1]	> 7.00	6.26
CN(C(=O)c1ccn2ncc(-c3ccc(C(N)=O)cc3)c2c1)c1ccc(Cl)c(C(=O)OCCN2CCOCC2)c1 [WO2022079616, Example 1.08]	> 7.00	< 6.00
CNC(=O)c1ccc(-c2cnn3ccc(C(=O)N(C)c4ccc(Cl)c(C(=O)OC(C)(C)C)c4)cc23)cc1 [WO2022079616, Example 1.17]	> 7.00	–
CNC(=O)c1ccc(-c2cnn3ccc(C(=O)Nc4ccc(Cl)c(C(=O)OC)c4)cc23)cc1 [WO2022079616, Example 1.24]	< 6.00	< 6.00
CN(C(=O)c1ccn2ncc(-c3ccc(C(N)=O)cc3)c2c1)c1ccc(Cl)c(C(=O)OCC2CCCO2)c1 (racemic) [WO2022079616, Example 1.15]	> 7.00	–
COC(=O)c1cc(NC(=O)c2ccn3ncc(-c4ccc(C(N)=O)cc4)c3c2)ccc1Cl [WO2022079616, Example 1.23]	< 6.00	< 6.00
CCOC(=O)c1cc(N(C)C(=O)c2ccn3ncc(-c4ccc(C(N)=O)cc4)c3c2)ccc1Cl [WO2022079616, Example 1.09]	> 7.00	–
CSCCOC(=O)c1cc(N(C)C(=O)c2ccn3ncc(-c4ccc(C(N)=O)cc4)c3c2)ccc1Cl [WO2022079616, Example 1.04]	> 7.00	–
CNC(=O)c1ccc(-c2cnn3ccc(C(=O)N(C)c4ccc(Cl)c(C(=O)OC)c4)cc23)cc1 [WO2022079616, Example 1.16]	> 7.00	6.26
CNC(=O)c1ccc(-c2cnn3ccc(C(=O)N(C)c4ccc(Cl)c(C(=O)OCCN5CCOCC5)c4)cc23)cc1 [WO2022079616, Example 1.19]	> 7.00	6.26
CN(C)C(=O)COC(=O)c1cc(N(C)C(=O)c2ccn3ncc(-c4ccc(C(N)=O)cc4)c3c2)ccc1Cl [WO2022079616, Example 1.12]	> 7.00	–
COC(=O)COC(=O)c1cc(N(C)C(=O)c2ccn3ncc(-c4ccc(C(N)=O)cc4)c3c2)ccc1Cl [WO2022079616, Example 1.06]	> 7.00	–
CNC(=O)c1ccc(-c2cnc3cnc(C(=O)N(C)c4ccc(Cl)c(C(=O)OC)c4)cn23)cc1 [WO2022079616, Example 2.1]	> 7.00	< 6.00
COC(=O)c1cc(N(C)C(=O)c2ccn3ncc(-c4ccc(C(N)=O)cc4)c3c2)ccc1OC(F)(F)F [WO2022079616, Example 1.25]	> 7.00	< 6.00
CC(C)OC(=O)c1cc(N(C)C(=O)c2ccn3ncc(-c4ccc(C(N)=O)cc4)c3c2)ccc1Cl [WO2022079616, Example 1.13]	> 7.00	–
CCOC(=O)OC(C)OC(=O)c1cc(N(C)C(=O)c2ccn3ncc(-c4ccc(C(N)=O)cc4)c3c2)ccc1Cl (racemic) [WO2022079616, Example 1.14]	6.26	< 6.00
COCCOC(=O)c1cc(N(C)C(=O)c2ccn3ncc(-c4ccc(C(N)=O)cc4)c3c2)ccc1Cl [WO2022079616, Example 1.11]	> 7.00	–
COC(=O)c1cc(N(C)C(=O)c2ccn3ncc(-c4ccc(C(N)=O)cc4C)c3c2)ccc1Cl [WO2022079616, Example 1.21]	> 7.00	< 6.00
